Laboratory results from ChEMBL document CHEMBL1130292, “Novel cyanoguanidines with potent oral antitumour activity” (Bioorg Med Chem Lett, 1997).

Experiments:
[1] = test system: NYH small cell lung cancer (Homo sapiens); assay: Evaluated in vitro for antiproliferative activity against NYH cell lines derived from small cell lung cancer
[2] = test system: NCI-H460; assay: Evaluated in vitro for antiproliferative activity against […] cell lines derived from large cell carcinoma of the lung; format: functional, cell-based; details: Homo sapiens
[3] = test system: MCF7; assay: Evaluated in vitro for antiproliferative activity against MCF-7 cell lines model of hormone dependent breast cancer; format: functional, cell-based; details: Homo sapiens
[4] = test system: Mus musculus; assay: Percent median treated tumor size to that of control tumor size in NYH treatment model in mice (in vivo) after peroral administration of compound (20 mg/kg, number of tumors 11); format: functional
[5] = In vitro antiproliferative activity against Fibroblasts; format: functional
[6] = test system: YOSHIDA; assay: In vitro antiproliferative activity against Yoshida cell lines; format: functional, cell-based; details: Rattus norvegicus
[7] = test system: WALKER; assay: In vitro antiproliferative activity against Walker cell line; format: functional, cell-based; details: Rattus norvegicus
[8] = test system: Lewis lung carcinoma cell line; assay: In vitro antiproliferative activity against Lewis cell lines; format: functional, cell-based; details: Mus musculus
[9] = test system: Mus musculus; assay: Percent median treated tumor size to that of control tumor size in NYH treatment model in mice (in vivo) after subcutaneous administration of compound (10 mg/kg, number of tumors 7); format: functional
[10] = test system: B16; assay: In vitro antiproliferative activity against B16 cell lines; format: functional, cell-based; details: Mus musculus
[11] = test system: Mus musculus; assay: Percent median treated tumor size to that of control tumor size in NYH treatment model in mice (in vivo) after intraperitoneal administration of compound (0.5 mg/kg, number of tumors 8); format: functional
[12] = test system: Mus musculus; assay: Percent median treated tumor size to that of control tumor size in NYH treatment model in mice (in vivo) after peroral administration of compound (20 mg/kg, number of tumors 20); format: functional
[13] = test system: Mus musculus; assay: Percent median treated tumor size to that of control tumor size in NYH treatment model in mice (in vivo) after peroral administration of compound (50 mg/kg, number of tumors 13); format: functional
[14] = test system: Mus musculus; assay: Percent median treated tumor size to that of control tumor size in NYH treatment model in mice (in vivo) after peroral administration of compound (25 mg/kg, number of tumors 9); format: functional
[15] = test system: Mus musculus; assay: Percent median treated tumor size to that of control tumor size in NYH treatment model in mice (in vivo) after peroral administration of compound (20 mg/kg, number of tumors 9); format: functional
[16] = test system: Mus musculus; assay: Percent median treated tumor size to that of control tumor size in NYH treatment model in mice (in vivo) after peroral administration of compound (20 mg/kg, number of tumors 8); format: functional

| Compound | IC50 [1] [nM] | IC50 [2] [nM] | IC50 [3] [nM] | other results |
| --- | --- | --- | --- | --- |
| N#CN/C(=N\CCCCCCOc1cccc([N+](=O)[O-])c1)Nc1ccncc1 | 5.7 | 74 | 31 |  |
| N#CN/C(=N\CCCCCCOc1ccccc1)Nc1ccncc1 | 4.9 | 52 | 30 |  |
| N#CN/C(=N\CCCCCCCOc1ccccc1)Nc1ccncc1 | 0.6 | 27 | 14 | T/C [4]: 35% |
| N#CN/C(=N\CCCCCOc1ccc(Cl)cc1)Nc1ccncc1 | 6.3 | 590 | 53 |  |
| CC(=O)O[C@H]1C(=O)[C@@]2(C)[C@H]([C@H](OC(=O)c3ccccc3)[C@]3(O)C[C@H](OC(=O)[C@H](O)[C@@H](NC(=O)c4ccccc4)c4ccccc4)C(C)=C1C3(C)C)[C@]1(OC(C)=O)CO[C@@H]1C[C@@H]2O [PACLITAXEL] | 4.3 |  |  | IC50 [5]: 0.9 nM; IC50 [6]: 7.9 nM; IC50 [7]: 150 nM; IC50 [8]: 61 nM; T/C [9]: 48%; IC50 [10]: 8 nM |
| N#CN/C(=N\CCCCCCCOc1ccccc1)Nc1cccnc1 | 22 | 360 | 42 |  |
| N#CN/C(=N\CCCCCCOc1cccc(Cl)c1)Nc1ccncc1 | 6.1 | 59 | 8.8 |  |
| COc1cccc2c1C(=O)c1c(O)c3c(c(O)c1C2=O)C[C@@](O)(C(C)=O)C[C@@H]3O[C@H]1C[C@H](N)[C@H](O)[C@H](C)O1 [DAUNORUBICIN] | 3.9 | 3.5 | 39 | IC50 [6]: 7.4 nM; IC50 [7]: 47 nM; T/C [11]: 105%; IC50 [8]: 61 nM; IC50 [10]: 9.2 nM |
| COc1ccc(OCCCCCC/N=C(\NC#N)Nc2ccncc2)cc1 | 12 | 37 | 37 |  |
| COc1ccccc1OCCCCCC/N=C(\NC#N)Nc1ccncc1 | 0.5 | 21 | 1.1 |  |
| N#CN/C(=N\CCCCCCCCOc1ccc(Cl)cc1)Nc1ccncc1 | 15 | 480 | 54 |  |
| N#CN=C(NCCCCCCOc1ccc(Cl)cc1)Nc1ccncc1 [CHS-828] | 2.7 | 50 | 31 | T/C [12]: 0%; T/C [13]: 0%; T/C [14]: 0%; IC50 [5]: 40 nM; IC50 [6]: 140 nM; IC50 [7]: 500 nM; IC50 [8]: 560 nM; IC50 [10]: 280 nM |
| N#CN/C(=N\CCCCCCCOc1ccc(Cl)cc1)Nc1ccncc1 | 6.2 | 69 | 56 |  |
| N#CN/C(=N\CCCCCCOc1cc(Cl)c(Cl)cc1Cl)Nc1ccncc1 | 2.1 | 13 | 4.4 | T/C [15]: 0% |
| N#CN/C(=N\CCCCCCOc1ccccc1Cl)Nc1ccncc1 | 0.6 | 5.8 | 1.9 |  |
| N#CN/C(=N\CCCCCCOc1ccccc1)Nc1cccnc1 | 52 | 530 | 230 |  |
| COc1cccc(OCCCCCC/N=C(\NC#N)Nc2ccncc2)c1 | 1.9 | 38 | 3.8 | T/C [16]: 42% |
| N#CN/C(=N\CCCCCCOc1ccccc1[N+](=O)[O-])Nc1ccncc1 | 0.6 | 41 | 6.3 |  |
| N#CN/C(=N\CCCCCCOc1ccc([N+](=O)[O-])cc1)Nc1ccncc1 | 52 | 590 | 120 |  |
